# How the values were obtained:
# [1] = Solubility assay of crystalline form A in 17 solvents; type: physicochemical; settings: thermodynamic from solid
# Method: For solubility assay, about 5 mg or about 10 mg of crystalline form A was weighed into a 2 mL glass vial. A 20 µL aliquot of each of the 17 solvents listed in Table 8 was added to the vial to dissolve the drug substance. For about 5 mg of crystalline form A, the drug substance was dissolved at 25°C; and for about 10 mg of crystalline form A, the drug substance was dissolved at 50°C. To aid dissolution, vortexing and sonication were applied to facilitate dissolution, and the maximum volume of each solvent added was 1 mL.
# [2] = Parallel artificial membrane permeability assay (PAMPA) for BBB permeability; type: in vitro ADME; settings: PAMPA, pH 7.2, BBB lipid membrane, PBS (pH 7.2); read-out: PAMPA Pe
# Method: • PAMPA: PMBBB-096 Kit • Assay format: 96-well plate • Reference substance: Imipramine (H) (10 µM) • Test substance concentration: 10 µM • Number of replicates: 3 • Reaction time: 6 hours at 25°C on a shaker (75 - 80 rpm) • Analytical method: LC-MS/MS • Data processing: Pe (cm/s)
# The test compounds (crystalline forms A and C) were dissolved in DMSO at a concentration of 10 mM […] to prepare standard solutions. Next, dried brain lipids were resuspended in 600 µL dodecane to prepare a BBB lipid solution in dodecane. Pipetting up and down was repeated (~100 times) until all dried brain lipids were dissolved (vortexing or sonication may be helpful). A 10 µM reaction solution in PBS containing 5% DMSO was prepared.
# The experiments were conducted in a 96-well plate using the prepared reaction solution of each test compound and the BBB lipid solution according to the following assay procedure. • 1. 500 µL of a 500 µM test compound solution (prepared by mixing 25 µL of a 10 mM test compound + 475 µL of PBS (pH 7.2) in DMSO) was prepared in a separate centrifuge tube. When a permeability control was used, it was diluted to 500 µM using PBS (prepared by mixing 25 µL of permeability control + 475 µL of PBS (pH 7.2)). • 2. For each test compound and control, a 200 µM equilibrium standard was prepared in a separate tube (by mixing 80 µL of 500 µM test compound or control with 120 µL of PBS (pH 7.2)). […] The absorbance spectrum from 200 nm to 500 nm was measured at 10 nm intervals to determine the peak absorbance of the test compounds. […] The peak absorbances of the high-permeability and low-permeability controls are 250 nm and 270 nm, respectively.
# For the compounds and permeability controls, the permeability rate (Pe) was determined using the following equation: Pe = C × −ln(1−(ODA)/(ODE))cm/s [formula]
# Here, ODA is the absorbance of the acceptor solution minus the blank, and ODE is the absorbance of the equilibrium standard minus the blank. For each absorbance value, the peak absorbance determined for each test was used. […]
smiles,measurement,setting,value
"C[C@@H]1CC[C@H](C(=O)O)CN1C(=O)Cc1ccc(F)cc1Cl [Crystalline form A, (3S,6R)-1-(2-(2-chloro-4-fluorophenyl)acetyl)-6-methylpiperidine-3-carboxylic acid]",solubility,"[1]; organic solvent or mixture, 1,4-Dioxane, 25°C",> 250 mg/mL
same,solubility,"[1]; organic solvent or mixture, 1,4-Dioxane, 50°C",> 500 mg/mL
same,solubility,"[1]; organic solvent or mixture, 2-MeTHF, 25°C",> 250 mg/mL
same,solubility,"[1]; organic solvent or mixture, 2-MeTHF, 50°C",> 500 mg/mL
same,solubility,"[1]; organic solvent or mixture, Acetone, 25°C",125 to 250 mg/mL
same,solubility,"[1]; organic solvent or mixture, Acetone, 50°C",> 500 mg/mL
same,solubility,"[1]; organic solvent or mixture, Acetonitrile, 25°C",41 to 50 mg/mL
same,solubility,"[1]; organic solvent or mixture, Acetonitrile, 50°C",> 500 mg/mL
same,solubility,"[1]; organic solvent or mixture, DMF, 25°C",> 250 mg/mL
same,solubility,"[1]; organic solvent or mixture, DMF, 50°C",> 500 mg/mL
same,solubility,"[1]; organic solvent or mixture, DMSO, 25°C",> 250 mg/mL
same,solubility,"[1]; organic solvent or mixture, DMSO, 50°C",> 500 mg/mL
same,solubility,"[1]; organic solvent or mixture, Dichloromethane, 25°C",> 250 mg/mL
same,solubility,"[1]; organic solvent or mixture, Dichloromethane, 50°C",> 500 mg/mL
same,solubility,"[1]; organic solvent or mixture, Ethanol, 25°C",125 to 250 mg/mL
same,solubility,"[1]; organic solvent or mixture, Ethanol, 50°C",> 500 mg/mL
same,solubility,"[1]; organic solvent or mixture, Ethyl acetate, 25°C",41 to 50 mg/mL
same,solubility,"[1]; organic solvent or mixture, Ethyl acetate, 50°C",250 to 500 mg/mL
same,solubility,"[1]; organic solvent or mixture, Heptane, 25°C",< 5 mg/mL
same,solubility,"[1]; organic solvent or mixture, Heptane, 50°C",< 10 mg/mL
same,solubility,"[1]; organic solvent or mixture, Isopropyl acetate, 25°C",63 to 83 mg/mL
same,solubility,"[1]; organic solvent or mixture, Isopropyl acetate, 50°C",125 to 167 mg/mL
same,solubility,"[1]; organic solvent or mixture, MTBE, 25°C",16 to 20 mg/mL
same,solubility,"[1]; organic solvent or mixture, MTBE, 50°C",33 to 50 mg/mL
same,solubility,"[1]; organic solvent or mixture, Methanol, 25°C",> 250 mg/mL
same,solubility,"[1]; organic solvent or mixture, Methanol, 50°C",> 500 mg/mL
same,solubility,"[1]; organic solvent or mixture, Methyl ethyl ketone, 25°C",83 to 125 mg/mL
same,solubility,"[1]; organic solvent or mixture, Methyl ethyl ketone, 50°C",250 to 500 mg/mL
same,solubility,"[1]; organic solvent or mixture, Tetrahydrofuran, 25°C",> 250 mg/mL
same,solubility,"[1]; organic solvent or mixture, Tetrahydrofuran, 50°C",> 500 mg/mL
same,solubility,"[1]; organic solvent or mixture, Toluene, 25°C",17 to 25 mg/mL
same,solubility,"[1]; organic solvent or mixture, Toluene, 50°C",50 to 100 mg/mL
same,solubility,"[1]; Water, 25°C",< 5 mg/mL
same,solubility,"[1]; Water, 50°C",< 10 mg/mL
same,"Papp at 6 h, 10 µM",[2],0.00925 ×10⁻⁶ cm/s

# — patent EP4772497A1, “POLYMORPHS OF NITROGEN-CONTAINING HETEROCYCLIC COMPOUNDS, AND USES THEREOF” (BNH Research Co., Ltd., priority 2023, dated 2025)
